Read-outs that look alike come from different tables or passages of the source.
Columns and labels:
[1] = target: T1, WRN helicase (aa N517-P1238) (Homo sapiens, UniProt Q14191); test: WRN ATPase assay (DNA dependent ATP hydrolysis, ADP-Glo); type: biochemical; conditions: 3 hours pre-incubation, 300 micromolar ATP, FLAP26 DNA; geometric mean of at least 2
T1 construct: The core helicase motif of the WRN protein (aa N517-P1238) was produced for this assay; His (N); ZZ (N); 3C protease cleavage site (N); made in house; host or cells: Sf21 insect cells (baculovirus; virus and BIICs made in SF9)
How it was run: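 DNA-dependent ATP hydrolysis detected as ADP by ADP-Glo luminescence, using 300 μM ATP, 0.2 nM FLAP26 substrate and 10 nM WRN aa N517-P1238 (Tris pH 7.5 buffer, 2 mM MgCl2, 50 mM NaCl). IC50s fitted from normalized duplicate half-log dilutions; reported as geometric means of at least 2 replicates.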

SW48 cells = test: Proliferation assay SW48 (CellTiterGlo); type: cell-based; conditions: SW48 colon carcinoma cells, 96 hours, CellTiterGlo, geometric mean of at least 2, read-out: Proliferation Assay SW48 GI50
How it was run: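 Read-out is CellTiterGlo luminescence after 96 hours of compound exposure, with % growth calculated against day-0 and vehicle-treated ATP levels. SW48 seeded at 2,000 cells/well, dosed next day with eight 3-fold serial dilutions, 0.1% DMSO. GI50 reported as geometric mean, at least 2 replicates.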

DLD1-WRN-KO cells = test: Proliferation assay DLD1-WRN-KO (CellTiterGlo, off-target effects); type: cell-based; conditions: 96 hours, geometric mean of at least 2
How it was run: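 DLD1 cells with CRISPR knockout of WRN were exposed overnight-seeded to eight 3-fold compound dilutions (0.1% DMSO) for 96 h at 37 °C. Viability was read as ATP by CellTiterGlo luminescence against a day-0 plate, giving GI50 and residual viability at top concentration.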

T1 sequence (Q14191 517-1238): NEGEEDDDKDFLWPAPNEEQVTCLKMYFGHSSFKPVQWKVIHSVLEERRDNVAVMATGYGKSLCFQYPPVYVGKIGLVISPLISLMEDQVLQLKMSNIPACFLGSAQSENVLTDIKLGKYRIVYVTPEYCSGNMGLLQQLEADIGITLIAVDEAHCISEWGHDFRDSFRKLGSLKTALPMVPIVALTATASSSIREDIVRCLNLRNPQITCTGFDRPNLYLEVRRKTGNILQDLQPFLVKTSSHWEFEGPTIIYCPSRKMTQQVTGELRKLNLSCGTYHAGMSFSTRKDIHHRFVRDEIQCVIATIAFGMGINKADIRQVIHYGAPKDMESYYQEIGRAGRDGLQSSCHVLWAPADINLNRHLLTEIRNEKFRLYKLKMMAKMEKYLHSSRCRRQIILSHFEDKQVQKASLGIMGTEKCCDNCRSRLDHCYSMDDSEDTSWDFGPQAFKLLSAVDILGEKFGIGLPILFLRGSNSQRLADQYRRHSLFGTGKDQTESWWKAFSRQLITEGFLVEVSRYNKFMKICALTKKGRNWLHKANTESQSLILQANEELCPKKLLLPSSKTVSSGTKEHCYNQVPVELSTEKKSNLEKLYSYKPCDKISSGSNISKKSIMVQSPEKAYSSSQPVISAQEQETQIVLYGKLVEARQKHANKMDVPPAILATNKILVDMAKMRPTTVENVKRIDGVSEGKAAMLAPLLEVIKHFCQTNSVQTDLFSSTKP

Row | Structure (SMILES) | IC50 [1] | GI50 (SW48 cells; Homo sapiens, SW48, 96 h) | GI50 (DLD1-WRN-KO cells) | GI50 (SW48 cells)
1 | CC(=O)N1CCN(c2c(C)n(CC(=O)Nc3cc(F)c(C(F)(F)F)cc3Cl)c3nc(C4=CCOCC4)nn3c2=O)CC1 [Example 91, 2-(6-(4-acetylpiperazin-1-yl)-2-(3,6-dihydro-2H-pyran-4-yl)-5-methyl-7-oxo-[1,2,4]triazolo[1,5-a]pyrimidin-4(7H)-yl)-N-(2-chloro-5-fluoro-4-(trifluoromethyl)phenyl)acetamide] | 700 nM | 3000 nM | > 10000 nM | 
2 | CC(=O)N1CCN(c2c(C)n(CC(=O)Nc3ccc(C(F)(F)F)cc3)c3nc(-c4ccc(F)cc4)nn3c2=O)CC1 [Example 124, 2-(6-(4-acetylpiperazin-1-yl)-2-(4-fluorophenyl)-5-methyl-7-oxo-[1,2,4]triazolo[1,5-a]pyrimidin-4(7H)-yl)-N-(4-(trifluoromethyl)phenyl) acetamide] | 700 nM | 4000 nM | > 10000 nM | 
3 | CC(=O)N1CCN(c2c(C)n(CC(=O)Nc3ccc(C(F)(F)F)cc3)c3nc(-c4cccnc4)nn3c2=O)CC1 [Example 106, 2-(6-(4-acetylpiperazin-1-yl)-5-methyl-7-oxo-2-(pyridin-3-yl)-[1,2,4]triazolo[1,5-a]pyrimidin-4(7H)-yl)-N-(4-(trifluoromethyl)phenyl)acetamide] | 100 nM | 200 nM | > 10000 nM | 
4 | CCc1c(N2CCN(C(=O)CN)CC2)c(=O)n2nc(C3=CCC(OC)CC3)nc2n1CC(=O)Nc1ccc(C(F)(F)F)cc1 (stereo not drawn) [Example 33, 2-(5-ethyl-6-(4-glycylpiperazin-1-yl)-2-(4-methoxycyclohex-1-en-1-yl)-7-oxo-[1,2,4]triazolo[1,5-a]pyrimidin-4(7H)-yl)-N-(4-(trifluoromethyl)phenyl)acetamide] | 1000 nM | 8000 nM | > 10000 nM | 
5 | CCc1c(N2CCN(C(=O)c3nsnc3O)CC2)c(=O)n2nc(C3=CCOCC3)nc2n1CC(=O)Nc1ccc(C(F)(F)F)cc1Cl [Example 66, N-(2-chloro-4-(trifluoromethyl)phenyl)-2-(2-(3,6-dihydro-2H-pyran-4-yl)-5-ethyl-6-(4-(4-hydroxy-1,2,5-thiadiazole-3-carbonyl)piperazin-1-yl)-7-oxo-[1,2,4]triazolo[1,5-a]pyrimidin-4(7H)-yl)acetamide] | 30 nM | 300 nM | > 10000 nM | 
6 | CCc1c(N2CCN(C(C)=O)CC2)c(=O)n2nc(C3=CCOCC3)nc2n1CC(=O)Nc1ccc(C(F)(F)F)cc1Cl [Example 59, 2-(6-(4-acetylpiperazin-1-yl)-2-(3,6-dihydro-2H-pyran-4-yl)-5-ethyl-7-oxo-[1,2,4]triazolo[1,5-a]pyrimidin-4(7H)-yl)-N-(2-chloro-4-(trifluoromethyl)phenyl)acetamide] | 300 nM | 1000 nM | > 10000 nM | 
7 | CCc1c(N2CCN(C(=O)c3nn(C)c(=O)[nH]3)CC2)c(=O)n2nc(C3=CCC(OC)CC3)nc2n1CC(=O)Nc1ccc(C(F)(F)F)cc1 (stereo not drawn) [Example 53, 2-(5-ethyl-2-(4-methoxycyclohex-1-en-1-yl)-6-(4-(1-methyl-5-oxo-4,5-dihydro-1H-1,2,4-triazole-3-carbonyl)piperazin-1-yl)-7-oxo-[1,2,4]triazolo[1,5-a]pyrimidin-4(7H)-yl)-N-(4-(trifluoromethyl)phenyl)acetamide] | 60 nM | 800 nM | > 10000 nM | 
8 | CCc1c(N2CCN(C(=O)c3ncn(C)c3O)CC2)c(=O)n2nc(C3=CCOCC3)nc2n1CC(=O)Nc1ccc(C(F)(F)F)cc1Cl [Example 67, N-(2-chloro-4-(trifluoromethyl)phenyl)-2-(2-(3,6-dihydro-2H-pyran-4-yl)-5-ethyl-6-(4-(5-hydroxy-1-methyl-1H-imidazole-4-carbonyl)piperazin-1-yl)-7-oxo-[1,2,4]triazolo[1,5-a]pyrimidin-4(7H)-yl)acetamide] | 300 nM | 3000 nM | > 10000 nM | 
9 | CCc1c(N2CCN(C(=O)C3CCOC3)CC2)c(=O)n2nc(C3=CCCCO3)nc2n1CC(=O)Nc1ccc(C(F)(F)F)cc1 (stereo not drawn) [Example 61, 2-(2-(3,4-dihydro-2H-pyran-6-yl)-5-ethyl-7-oxo-6-(4-(tetrahydrofuran-3-carbonyl)piperazin-1-yl)-[1,2,4]triazolo[1,5-a]pyrimidin-4(7H)-yl)-N-(4-(trifluoromethyl)phenyl)acetamide] | 400 nM |  | > 10000 nM | 4000 nM
10 | CC(=O)N1CCN(c2c(C)n(CC(=O)Nc3ccc(C(F)(F)F)cc3)c3nc(N4CCC(N(C)CC(F)F)CC4)nn3c2=O)CC1 [Example 113, 2-(6-(4-acetylpiperazin-1-yl)-2-(4-((2,2-difluoroethyl)(methyl)amino)piperidin-1-yl)-5-methyl-7-oxo-[1,2,4]triazolo[1,5-a]pyrimidin-4(7H)-yl)-N-(4-(trifluoromethyl)phenyl)acetamide] | 300 nM | 5000 nM | > 10000 nM | 
11 | COC1CC=C(c2nc3n(CC(=O)Nc4ccc(C(F)(F)F)cc4)c(C)c(N4CCN(C(C)=O)CC4)c(=O)n3n2)CC1 (stereo not drawn) [Example 107, 2-(6-(4-acetylpiperazin-1-yl)-2-(4-methoxycyclohex-1-en-1-yl)-5-methyl-7-oxo-[1,2,4]triazolo[1,5-a]pyrimidin-4(7H)-yl)-N-(4-(trifluoromethyl)phenyl)acetamide] | 200 nM | 3000 nM | > 10000 nM | 
12 | COC(=O)N1CC=C(c2nc3n(CC(=O)Nc4ccc(S(F)(F)(F)(F)F)cc4)c(C)c(N4CCN(C(C)=O)CC4)c(=O)n3n2)CC1 [Example 156, methyl 4-(6-(4-acetylpiperazin-1-yl)-5-methyl-7-oxo-4-(2-oxo-2-((4-(pentafluoro-16-sulfaneyl)phenyl)amino)ethyl)-4,7-dihydro-[1,2,4]triazolo[1,5-a]pyrimidin-2-yl)-3,6-dihydropyridine-1(2H)-carboxylate] | 200 nM | 3000 nM | > 10000 nM | 
13 | CC(=O)N1CCN(c2c(C)n(CC(=O)Nc3cnc(C(F)(F)F)cc3Cl)c3nc(C4=CCOCC4)nn3c2=O)CC1 [Example 99, 2-(6-(4-acetylpiperazin-1-yl)-2-(3,6-dihydro-2H-pyran-4-yl)-5-methyl-7-oxo-[1,2,4]triazolo[1,5-a]pyrimidin-4(7H)-yl)-N-(4-chloro-6-(trifluoromethyl)pyridin-3-yl)acetamide] | 2000 nM | 6000 nM | > 10000 nM | 
14 | CCc1c(N2CCN(C(C)=O)CC2)c(=O)n2nc(C3=CCC(OC)CC3)nc2n1CC(=O)Nc1ccc(C(F)(F)F)cc1 (stereo not drawn) [Example 55, 2-(6-(4-acetylpiperazin-1-yl)-5-ethyl-2-(4-methoxycyclohex-1-en-1-yl)-7-oxo-[1,2,4]triazolo[1,5-a]pyrimidin-4(7H)-yl)-N-(4-(trifluoromethyl)phenyl)acetamide] | 100 nM | 800 nM | > 10000 nM | 
15 | Cc1c(N2CCN(C(=O)c3c(F)ccc(F)c3O)C(C)C2)c(=O)n2nc(C3=CCOCC3)nc2n1CC(=O)Nc1ccc(C(F)(F)F)cc1 (stereo not drawn) [Example 148, 2-(6-(4-(3,6-difluoro-2-hydroxybenzoyl)-3-methylpiperazin-1-yl)-2-(3,6-dihydro-2H-pyran-4-yl)-5-methyl-7-oxo-[1,2,4]triazolo[1,5-a]pyrimidin-4(7H)-yl)-N-(4-(trifluoromethyl)phenyl)acetamide] | 60 nM | 300 nM | > 10000 nM | 
16 | CCc1c(C2=CCN(C(C)=O)CC2)c(=O)n2nc(C3=CCC(OC)CC3)nc2n1CC(=O)Nc1ccc(C(F)(F)F)cc1 (stereo not drawn) [Example 140, 2-(6-(1-acetyl-1,2,3,6-tetrahydropyridin-4-yl)-5-ethyl-2-(4-methoxycyclohex-1-en-1-yl)-7-oxo-[1,2,4]triazolo[1,5-a]pyrimidin-4(7H)-yl)-N-(4-(trifluoromethyl)phenyl)acetamide] | 100 nM | 4000 nM | > 10000 nM | 
17 | Cc1c(N2CCN(C(=O)c3ccc(F)c(F)c3O)CC2)c(=O)n2nc(N3CCOCC3)nc2n1CC(=O)Nc1ccc(C(F)(F)F)cc1 [Example 150, 2-(6-(4-(3,4-difluoro-2-hydroxybenzoyl)piperazin-1-yl)-5-methyl-2-morpholino-7-oxo-[1,2,4]triazolo[1,5-a]pyrimidin-4(7H)-yl)-N-(4-(trifluoromethyl)phenyl)acetamide] | 90 nM | 2000 nM | > 10000 nM | 
18 | CC(=O)N1CCN(c2c(C)n(CC(=O)Nc3ccc(C(F)(F)F)cc3)c3nc(N4CC5CC5C4)nn3c2=O)CC1 (stereo not drawn) [Example 125, 2-(6-(4-acetylpiperazin-1-yl)-2-(3-azabicyclo[3.1.0]hexan-3-yl)-5-methyl-7-oxo-[1,2,4]triazolo[1,5-a]pyrimidin-4(7H)-yl)-N-(4-(trifluoromethyl)phenyl)acetamide] | 800 nM | 3000 nM | > 10000 nM | 

From US20260250289A1, “BICYCLIC HETEROCYCLES AND THEIR USE AS WRN INHIBITORS” (Novartis AG, priority 2022, published 2026)
